Patent publication US20220132852A1, “PESTICIDALLY ACTIVE HETEROCYCLIC DERIVATIVES WITH SULFUR CONTAINING SUBSTITUENTS” (SYNGENTA CROP PROTECTION AG, priority 2019, published 2022)

What was measured:
Assay type in all cases: in vivo
[1] = test system: Diabrotica balteata (Corn Root Worm); experiment: Example B1: Activity against Diabrotica balteata (corn root worm), sprayed maize sprouts; conditions: 96 h, application rate 200 ppm, L2 larvae on sprayed maize sprouts, 4 days after infestation, read-out: effect in at least one of the two categories (mortality or growth inhibition)
Description: Example B1: Activity Against Diabrotica balteata (Corn Root Worm)
Maize sprouts placed onto an agar layer in 24-well microtiter plates were treated with aqueous test solutions prepared from 10′000 ppm DMSO stock solutions by spraying. After drying, the plates were infested with L2 larvae (6 to 10 per well). The samples were assessed for mortality and growth inhibition in comparison to untreated samples 4 days after infestation.

[2] = test system: Plutella xylostella (Diamond Back Moth); experiment: Example B3: Activity against Plutella xylostella (diamond back moth), artificial diet; conditions: 192 h, application rate 200 ppm, eggs on artificial diet, 8 days after infestation, read-out: effect in at least one of the two categories (mortality or growth inhibition)
Description: Example B3: Activity Against Plutella xylostella (Diamond Back Moth)
24-well microtiter plates with artificial diet were treated with aqueous test solutions prepared from 10′000 ppm DMSO stock solutions by pipetting. After drying, Plutella eggs were pipetted through a plastic stencil onto a gel blotting paper and the plate was closed with it. The samples were assessed for mortality and growth inhibition in comparison to untreated samples 8 days after infestation. The following compounds gave an effect of at least 80% in at least one of the two categories (mortality or growth inhibition) at an application rate of 200 ppm: P2, P4, P5, P6, P8, P9, P10, P11, P12, P14, P15, P16, P17, P18, P19, P20, P21, P22, P23, P24, P25, P26, P27, P28, P29, P30, P31, P32, P33, P34, P35, P36, P38, P39, P40, P42, P45, P46, P47, P49, P50, P51, P52.

[3] = test system: Euschistus heros (Neotropical Brown Stink Bug); experiment: Example B2: Activity against Euschistus heros (neotropical brown stink bug), sprayed soybean leaves; conditions: 120 h, application rate 200 ppm, N2 nymphs on sprayed soybean leaves, 5 days after infestation, read-out: effect in at least one of the two categories (mortality or growth inhibition)
Description: Example B2: Activity Against Euschistus heros (Neotropical Brown Stink Bug)
Soybean leaves on agar in 24-well microtiter plates were sprayed with aqueous test solutions prepared from 10′000 ppm DMSO stock solutions. After drying the leaves were infested with N2 nymphs. The samples were assessed for mortality and growth inhibition in comparison to untreated samples 5 days after infestation.

[4] = test system: Spodoptera littoralis (Egyptian Cotton Leaf Worm); experiment: Example B6: Activity against Spodoptera littoralis (Egyptian cotton leaf worm); conditions: foliar, 72 h, application rate 200 ppm, L1 larvae on sprayed cotton leaf discs, 3 days after infestation, read-out: control (mortality, anti-feeding effect or growth inhibition)
Description: Example B6: Activity Against Spodoptera littoralis (Egyptian Cotton Leaf Worm)
Cotton leaf discs were placed onto agar in 24-well microtiter plates and sprayed with aqueous test solutions prepared from 10′000 ppm DMSO stock solutions. After drying the leaf discs were infested with five L1 larvae. The samples were assessed for mortality, anti-feeding effect, and growth inhibition in comparison to untreated samples 3 days after infestation. Control of Spodoptera littoralis by a test sample is given when at least one of the categories mortality, anti-feedant effect, and growth inhibition is higher than the untreated sample.

CCSc1cc(C2CC2)cnc1-c1cc2ncn(CC(F)(F)C(F)(F)F)c2cn1 [Compound P9, 6-(5-cyclopropyl-3-ethylsulfanyl-2-pyridyl)-3-(2,2,3,3,3-pentafluoropropyl) imidazo[4,5-c]pyridine]
≥ 80%: percent effect (mortality or growth inhibition) at 200 ppm [1] | percent effect (mortality or growth inhibition) at 200 ppm [2]

CCS(=O)(=O)c1cc(NC)cnc1-c1cc2ccn(CC(F)(F)C(F)(F)F)c2cn1 [Compound P18, 5-ethylsulfonyl-N-methyl-6-[1-(2,2,3,3,3-pentafluoropropyl)pyrrolo[2,3-c]pyridin-5-yl]pyridin-3-amine]
≥ 80%: percent effect (mortality or growth inhibition) at 200 ppm [3] | percent effect (mortality or growth inhibition) at 200 ppm [1] | percent effect (mortality or growth inhibition) at 200 ppm [2] | percent control (mortality, anti-feedant effect or growth inhibition) at 200 ppm [4]

CCS(=O)(=O)c1cc(C(C)(C)C#N)cnc1-c1cc2ccn(CC(F)(F)C(F)(F)F)c2cn1 [Compound P19, 2-[5-ethylsulfonyl-6-[1-(2,2,3,3,3-pentafluoropropyl)pyrrolo[2,3-c]pyridin-5-yl]-3-pyridyl]-2-methyl-propanenitrile]
≥ 80%: percent effect (mortality or growth inhibition) at 200 ppm [3] | percent effect (mortality or growth inhibition) at 200 ppm [1] | percent effect (mortality or growth inhibition) at 200 ppm [2] | percent control (mortality, anti-feedant effect or growth inhibition) at 200 ppm [4]

CCSc1cc(Oc2ccccn2)cnc1-c1cc2cnn(CC(F)(F)C(F)(F)F)c2cn1 [Compound P20, 5-[3-ethylsulfanyl-5-(2-pyridyloxy)-2-pyridyl]-1-(2,2,3,3,3-pentafluoropropyl) pyrazolo [3,4-c]pyridine]
≥ 80%: percent effect (mortality or growth inhibition) at 200 ppm [3] | percent effect (mortality or growth inhibition) at 200 ppm [1] | percent effect (mortality or growth inhibition) at 200 ppm [2] | percent control (mortality, anti-feedant effect or growth inhibition) at 200 ppm [4]

CCS(=O)(=O)c1cc(C2CC2)cnc1-c1cc2cnn(CC(F)(F)C(F)(F)F)c2cn1 [Compound P28, 5-(5-cyclopropyl-3-ethylsulfonyl-2-pyridyl)-1-(2,2,3,3,3-pentafluoropropyl) pyrazolo[3,4-c] pyridine]
≥ 80%: percent effect (mortality or growth inhibition) at 200 ppm [3] | percent effect (mortality or growth inhibition) at 200 ppm [1] | percent effect (mortality or growth inhibition) at 200 ppm [2] | percent control (mortality, anti-feedant effect or growth inhibition) at 200 ppm [4]

CCSc1cc(C(C)(C)C#N)cnc1-c1cc2ccn(CC(F)(F)C(F)(F)F)c2cn1 [Compound P29, 2-[5-ethylsulfanyl-6-[1-(2,2,3,3,3-pentafluoropropyl)pyrrolo[2,3-c]pyridin-5-yl]-3-pyridyl]-2-methyl-propanenitrile]
≥ 80%: percent effect (mortality or growth inhibition) at 200 ppm [1] | percent effect (mortality or growth inhibition) at 200 ppm [2]

CCSc1cc(C(F)(F)F)cnc1-c1cc2cnn(CC(F)(F)C(F)(F)F)c2cn1 [Compound P30, 5-[3-ethylsulfanyl-5-(trifluoromethyl)-2-pyridyl]-1-(2,2,3,3,3-pentafluoropropyl) pyrazolo[3,4-c] pyridine]
≥ 80%: percent effect (mortality or growth inhibition) at 200 ppm [3] | percent effect (mortality or growth inhibition) at 200 ppm [1] | percent effect (mortality or growth inhibition) at 200 ppm [2] | percent control (mortality, anti-feedant effect or growth inhibition) at 200 ppm [4]

CCS(=O)(=O)c1ccc(-n2cncn2)nc1-c1cc2ccn(CC(F)(F)C(F)(F)F)c2cn1 [Compound P35, 5-[3-ethylsulfonyl-6-(1,2,4-triazol-1-yl)-2-pyridyl]-1-(2,2,3,3,3-pentafluoropropyl) pyrrolo[2,3-c]pyridine]
≥ 80%: percent effect (mortality or growth inhibition) at 200 ppm [1] | percent effect (mortality or growth inhibition) at 200 ppm [2] | percent control (mortality, anti-feedant effect or growth inhibition) at 200 ppm [4]

CCS(=O)(=O)c1ccc(Cl)nc1-c1cc2ccn(CC(F)(F)C(F)(F)F)c2cn1 [Compound P36, 5-(6-chloro-3-ethylsulfonyl-2-pyridyl)-1-(2,2,3,3,3-pentafluoropropyl) pyrrolo[2,3-c]pyridine]
≥ 80%: percent effect (mortality or growth inhibition) at 200 ppm [1] | percent effect (mortality or growth inhibition) at 200 ppm [2] | percent control (mortality, anti-feedant effect or growth inhibition) at 200 ppm [4]

CCSc1cc(C2(C#N)CC2)cnc1-c1cc2ccn(CC(F)(F)C(F)(F)F)c2cn1 [Compound P37, 1-[5-ethylsulfanyl-6-[1-(2,2,3,3,3-pentafluoropropyl)pyrrolo[2,3-c]pyridin-5-yl]-3-pyridyl] cyclopropane-carbonitrile]
≥ 80%: percent effect (mortality or growth inhibition) at 200 ppm [1] | percent control (mortality, anti-feedant effect or growth inhibition) at 200 ppm [4]

CCSc1cc(C2(C#N)CC2)cnc1-c1cc2ncn(CC(F)(F)C(F)(F)F)c2cn1 [Compound P38, 1-[5-ethylsulfanyl-6-[3-(2,2,3,3,3-pentafluoropropyl)imidazo[4,5-c]pyridin-6-yl]-3-pyridyl] cyclopropane-carbonitrile]
≥ 80%: percent effect (mortality or growth inhibition) at 200 ppm [3] | percent effect (mortality or growth inhibition) at 200 ppm [1] | percent effect (mortality or growth inhibition) at 200 ppm [2] | percent control (mortality, anti-feedant effect or growth inhibition) at 200 ppm [4]

CCSc1cc(-n2ccc(Cl)n2)cnc1-c1cc2cnn(CC(F)(F)C(F)(F)F)c2cn1 [Compound P39, 5-[5-(3-chloropyrazol-1-yl)-3-ethylsulfanyl-2-pyridyl]-1-(2,2,3,3,3-pentafluoropropyl) pyrazolo[3,4-c]pyridine]
≥ 80%: percent effect (mortality or growth inhibition) at 200 ppm [1] | percent effect (mortality or growth inhibition) at 200 ppm [2] | percent control (mortality, anti-feedant effect or growth inhibition) at 200 ppm [4]

CCS(=O)(=O)c1cc(-n2ccc(C(F)(F)F)n2)cnc1-c1cc2cnn(CC(F)(F)C(F)(F)F)c2cn1 [Compound P45, 5-[3-ethylsulfonyl-5-[3-(trifluoromethyl)pyrazol-1-yl]-2-pyridyl]-1-(2,2,3,3,3-pentafluoropropyl) pyrazolo[3,4-c]pyridine]
≥ 80%: percent effect (mortality or growth inhibition) at 200 ppm [3] | percent effect (mortality or growth inhibition) at 200 ppm [1] | percent effect (mortality or growth inhibition) at 200 ppm [2] | percent control (mortality, anti-feedant effect or growth inhibition) at 200 ppm [4]

CCS(=O)(=O)c1ccc(Cl)nc1-c1cc2cnn(CC(F)(F)C(F)(F)F)c2cn1 [Compound P49, 5-(6-chloro-3-ethylsulfonyl-2-pyridyl)-1-(2,2,3,3,3-pentafluoropropyl) pyrazolo[3,4-c]pyridine]
≥ 80%: percent effect (mortality or growth inhibition) at 200 ppm [3] | percent effect (mortality or growth inhibition) at 200 ppm [1] | percent effect (mortality or growth inhibition) at 200 ppm [2] | percent control (mortality, anti-feedant effect or growth inhibition) at 200 ppm [4]

CCSc1cc(-n2ccc(C(F)(F)F)n2)cnc1-c1cc2cnn(CC(F)(F)C(F)(F)F)c2cn1 [Compound P50, 5-[3-ethylsulfanyl-5-[3-(trifluoromethyl)pyrazol-1-yl]-2-pyridyl]-1-(2,2,3,3,3-pentafluoropropyl) pyrazolo[3,4-c]pyridine]
≥ 80%: percent effect (mortality or growth inhibition) at 200 ppm [1] | percent effect (mortality or growth inhibition) at 200 ppm [2] | percent control (mortality, anti-feedant effect or growth inhibition) at 200 ppm [4]

CCS(=O)(=O)c1cc(C2CC2)cnc1-c1cc2ccn(CC(F)(F)C(F)(F)F)c2cn1 [Compound P51, 5-(5-cyclopropyl-3-ethylsulfonyl-2-pyridyl)-1-(2,2,3,3,3-pentafluoropropyl) pyrrolo[2,3-c]pyridine]
≥ 80%: percent effect (mortality or growth inhibition) at 200 ppm [1] | percent effect (mortality or growth inhibition) at 200 ppm [2] | percent control (mortality, anti-feedant effect or growth inhibition) at 200 ppm [4]

CCSc1cc(C2CC2)c[n+]([O-])c1-c1cc2ncn(CC(F)(F)C(F)(F)F)c2cn1 [PN4, 6-(5-cyclopropyl-3-ethylsulfanyl-1-oxido-pyridin-1-ium-2-yl)-3-(2,2,3,3,3-pentafluoropropyl)imidazo[4,5-c]pyridine]
≥ 80%: percent effect (mortality or growth inhibition) at 200 ppm [3]

CCSc1cc(C2(C#N)CC2)c[n+]([O-])c1-c1cc2ncn(CC(F)(F)C(F)(F)F)c2cn1 [PN8, 1-[5-ethylsulfanyl-1-oxido-6-[3-(2,2,3,3,3-pentafluoropropyl)imidazo[4,5-c]pyridin-6-yl]pyridin-1-ium-3-yl]cyclopropane-carbonitrile]
≥ 80%: percent effect (mortality or growth inhibition) at 200 ppm [3]
